Species on record: Rattus norvegicus
Test: DrugMatrix - Regimen: Daily Repeat
Assay type: toxicity, organism-based, Sprague-Dawley
Set-up: regimen Daily Repeat, gender Male, age 6-8 weeks
Conditions: in vivo, po, 1500 mg/kg, route oral GAVAGE, dose level High, vehicle 100 % WATER; for ALANINE AMINOTRANSFERASE / ALBUMIN / ALKALINE PHOSPHATASE / ASPARTATE AMINOTRANSFERASE / BLOOD UREA NITROGEN / CARBON DIOXIDE / CHLORIDE / CHOLESTEROL / CREATINE PHOSPHOKINASE / CREATININE / GLUCOSE / LACTATE DEHYDROGENASE / LIPASE / PHOSPHORUS / POTASSIUM / SODIUM / TOTAL BILIRUBIN / TOTAL PROTEIN / URIC ACID: tissue Plasma
[1] = 120 h, tissue Blood, time 5 day

## CCCC(CCC)C(=O)O [VALPROIC ACID]
72 h, tissue Blood, time 3 day
  ABSOLUTE EOSINOPHIL: 0 CELLS/uL
  ABSOLUTE LYMPHOCYTE: 4940.67 CELLS/uL
  ABSOLUTE MONOCYTE: 35.67 CELLS/uL
  ABSOLUTE SEGMENTED NEUTROPHIL: 257 CELLS/uL
  BASOPHIL: 0%
  EOSINOPHIL: 0%
  ERYTHROCYTE COUNT: 5.94 x10E6/uL
  HEMATOCRIT: 37.3%
  LEUKOCYTE COUNT: 5.23 x10E3/uL
  LYMPHOCYTE: 94.33%
  MEAN CORPUSCULAR HEMOGLOBIN: 23.37 pg
  MEAN CORPUSCULAR HEMOGLOBIN CONCENTRATION: 37.17 G/DL
  MEAN CORPUSCULAR VOLUME: 62.83 fL
  MONOCYTE: 0.67%
  NEUTROPHIL: 5%
  NUCLEATED RED BLOOD CELLS: 0 /100WBC
  PLATELET COUNT: 901.67 x10E3/uL
72 h, time 3 day
  ALANINE AMINOTRANSFERASE: 32.33 u/L
  ALBUMIN: 4.5 G/DL
  ALKALINE PHOSPHATASE: 225.67 u/L
  ASPARTATE AMINOTRANSFERASE: 77.67 u/L
  BLOOD UREA NITROGEN: 10.67 mg/dL
  CARBON DIOXIDE: 26 mmol/L
  CHLORIDE: 104 MEQ/L
  CHOLESTEROL: 42.67 mg/dL
  CREATINE PHOSPHOKINASE: 120 u/L
  CREATININE: 0.22 mg/dL
  GLUCOSE: 138 mg/dL
  LACTATE DEHYDROGENASE: 112 u/L
  LIPASE: 7.67 u/L
  PHOSPHORUS: 14.3 mg/dL
  POTASSIUM: 6.21 MEQ/L
  SODIUM: 146.87 MEQ/L
  TOTAL BILIRUBIN: 0.1 mg/dL
  TOTAL PROTEIN: 5.87 G/DL
  URIC ACID: 1.7 mg/dL
[1]
  ABSOLUTE BASOPHIL: 0 CELLS/uL
  ABSOLUTE EOSINOPHIL: 7.25 CELLS/uL
  ABSOLUTE LYMPHOCYTE: 3923.75 CELLS/uL
  ABSOLUTE MONOCYTE: 124 CELLS/uL
  ABSOLUTE SEGMENTED NEUTROPHIL: 320 CELLS/uL
  BASOPHIL: 0%
  EOSINOPHIL: 0.25%
  ERYTHROCYTE COUNT: 6.03 x10E6/uL
  HEMATOCRIT: 36.38%
  LEUKOCYTE COUNT: 4.38 x10E3/uL
  LYMPHOCYTE: 91%
  MEAN CORPUSCULAR HEMOGLOBIN: 22.62 pg
  MEAN CORPUSCULAR HEMOGLOBIN CONCENTRATION: 37.5 G/DL
  MEAN CORPUSCULAR VOLUME: 60.35 fL
  MONOCYTE: 2.25%
  NEUTROPHIL: 6.5%
  NUCLEATED RED BLOOD CELLS: 0 /100WBC
  PLATELET COUNT: 549.5 x10E3/uL
120 h, time 5 day
  ALANINE AMINOTRANSFERASE: 52.5 u/L
  ALBUMIN: 4.57 G/DL
  ALKALINE PHOSPHATASE: 204.25 u/L
  ASPARTATE AMINOTRANSFERASE: 132 u/L
  BLOOD UREA NITROGEN: 15.75 mg/dL
  CARBON DIOXIDE: 28 mmol/L
  CHLORIDE: 105.75 MEQ/L
  CHOLESTEROL: 53.5 mg/dL
  CREATINE PHOSPHOKINASE: 1153.75 u/L
  CREATININE: 0.25 mg/dL
  GLUCOSE: 150.25 mg/dL
  LACTATE DEHYDROGENASE: 237.5 u/L
  LIPASE: 8.25 u/L
  PHOSPHORUS: 13.5 mg/dL
  POTASSIUM: 6.62 MEQ/L
  SODIUM: 146.95 MEQ/L
  TOTAL BILIRUBIN: 0.15 mg/dL
  TOTAL PROTEIN: 5.9 G/DL
  URIC ACID: 1.88 mg/dL
